15 molecules from patent US8524703B2, “Bridgehead amine ring-fused indoles and indolines” (AbbVie Inc., priority 2009, dated 2013) can be followed below.

Assay [1] deals with primary postnatal (P0) cortical cells. The assay can be described thus: Neurite Outgrowth Assay (neuroprotection against Aβ1-42-induced reduction of neurite outgrowth). The following applies: for % Attenuation Effect of 5 μM Aβ 1-42: 5 μM Aβ1-42, 3 days, compound pretreatment about 5 hours; for Emax at 3 µM / Emax at 0.3 µM: Rattus norvegicus, relative to 300 nM dimebolin, read-out: Maximum Effect (of % 300 nM Dimebolin) at Concentration; for Emax at 3 µM: maximum response at 3000 nM test compound; for Emax at 0.3 µM: maximum response at 300 nM test compound. The format is cell-based, rat. Here is the method:
In addition to PC12 cells, other cellular model systems may also be used. Rat cortical cells can be cultured and prepared for high content microscopy analysis as previously described (Hu, M.; Schurdak, M. E.; et al. High content screen microscopy analysis of Aβ1-42-induced neurite outgrowth reduction in rat primary cortical neurons: Neuroprotective effects of α7 neuronal nicotinic acetylcholine receptor ligands. Brain Res. 2007, 1151, 227-235.). Briefly, cortical cell cultures are plated at density of 5×10^5 cells/mL onto poly-D-lysine coated 96-well plates and maintained in a cell incubator at 37° C. with 5% CO2. Experiments are performed using 6-7 day-old cortical cell cultures by treating with test compounds. In some experiments, the effect of test compounds on reversing Aβ toxicity can also be measured (Hu, M.; Schurdak, M. E.; et al. High content screen microscopy analysis of Aβ1-42-induced neurite outgrowth reduction in rat primary cortical neurons: Neuroprotective effects of α7 neuronal nicotinic acetylcholine receptor ligands. Brain Res. 2007, 1151, 227-235.). For assessment of neuroprotective effects, cells are first pretreated with test compounds for about 5 hours. Medium is then replaced with the medium containing freshly prepared about 5 μM Aβ1-42 peptide in the absence or presence of the test compounds for 3 days. The untreated group contains the same percentage of vehicle (DMSO) as in the treatment groups. Cells are fixed with approximately 4% paraformaldehyde containing 0.5% Hoechst 33342 for about 15 minutes, followed by three washes using PBS (pH 7.4) and blocked with 10% donkey serum in PBS for 1 hour at room temperature. The cells are then incubated overnight at about 4° C. with mouse anti-tubulin monoclonal antibody (1:100) for staining neurons and rabbit anti-GFAP (1:1000) for staining glia. In the next day, cells are incubated with FITC-labeled anti-mouse and TRITC-labeled anti-rabbit antibodies (1:1000) for about 1 hour at room temperature. After fixing and staining the cells, nuclei (360/400 nm excitation and 465/300 nm emission filters), neuron (475/350 nm excitation and 535/400 nm emission filters) and glial cell (535 nm excitation and 610 nm emission filters) images are collected using the ImageExpress Micro automatic fluorescent microscopy system (Molecular Devices, Sunnyvale, Calif.) employing a Nikon 10× Plan Fluor objective and Cool Snap HQ CCD camera. The Neurite Outgrowth module in the MetaMorph Imaging software can be used to automatically count total cell number, number of neuron cells, and the extent of neurite outgrowth.
The neurite outgrowth observed for untreated cells is set to 100% response. Treatment of cells with compounds prior to and concomitantly with Aβ1-42 gave a neuroprotective effect with neurite outgrowth maintained or enhanced relative to untreated cells.

Assay [2] relates to SK-N-SH human neuroblastoma cells. The assay can be described thus: Serum Deprivation/JC-1 Mitochondrial Membrane Potential (MMP) Assay. The assay is classed as cell-based. The conditions noted are these: for Emax: read-out: JC-1 max %; for EC50: serum deprivation ~18 hours, JC-1 ratio normalized to peak value for 10 μM dimebolin. How it is done:
Tissue Culture: SK-N-SH human neuroblastoma cells obtained from American Type Culture Collection (Rockville, Md.) were maintained in the log phase of growth in Minimal Essential Media (MEM), 10% heat inactivated fetal calf serum and 100 units/mL antibiotic-antimycotic (AA). Cells were cultured and maintained in a humidified incubator at 37° C. under 5% CO2 and 95% air. Cells were trypsinized (0.25%) and subcultured every 3 days and used from 15-18 passages. All cell culture supplies were obtained from Invitrogen (Carlsbad, Calif.).
Serum Deprivation/JC-1 Mitochondrial Membrane Potential (MMP) Assay.
SK-N-SH cells were plated 2-3 days in advance at a concentration of 50,000 cells/well onto collagen coated black-walled 96 well plates (Becton-Dickinson, Bedford, Mass.) in a total volume of 200 μL. On day of experimental treatment, the media containing serum was aspirated from each well and rinsed once with MEM/1% AA without serum. The cells then were incubated overnight in 100 μL of MEM/1% AA (no serum) with and without dimebolin or novel chemical entities overnight for ˜18 hours. The following day, JC-1 dye (5,5′,6,6′-tetrachloro-1,1′,3,3′-tetraethylbenzimidazolcarbocyanide) was diluted 1:10 into MEM media according to the JC-1 Mitochondrial Membrane Potential Assay Kit: (Cayman Chemical Company, Ann Arbor, Mich.) and then 10 μL of the JC-1 dye solution was added to each well. The plates were centrifuged for 5 minutes at 400×g at room temperature followed by 40 minute incubation at 37° C. The plates were washed twice with 200 μL of provided Assay Buffer followed an addition of 100 μL of Assay Buffer to each well. The plates were read with an excitation and emission of 560 nm and 595 nM for red fluorescence and with an excitation and emission of […] and 535 nM for green fluorescence to determine the final JC-1 value taking the red to green fluorescence ratio. This assay is based on change in mitochondrial membrane potential (MMP) using this lipophilic cationic dye, JC-1, by monitoring the changes in the ratio of red to green fluorescence as the MMP depolarizes. This change in MMP reflects the health of the cell with healthy, viable cells have a high JC-1 ratio and high MMP whereas apoptotic, unhealthy cells have a low JC-1 ratio or low MMP.
For the ability of compounds to reverse the stress due to serum deprivation and increase the JC-1 ratio, the percent maximal intensity in JC-1 ratio was normalized to that induced by the peak value for 10 μM dimebolin and plotted against the compound concentration to calculate EC50 values and to control for plate-to-plate variability. Concentration-response data were analyzed using GraphPad Prism (San Diego, Calif.); the EC50 values were derived from a single curve fit to the mean data of n=2-3, in duplicates.
All compounds were dissolved in dimethyl sulfoxide at 10 mM stock solutions and tested at a concentration that the dimethyl sulfoxide levels never exceeded 1%.

Assay [3] deals with mice. The assay can be described thus: Inhibitory Avoidance in Mouse (24-hour recall). The assay is classed as in vivo. The following applies: 24 hours after initial exposure, 0.001, 0.01, 0.1, and 1.0 mg/kg i.p., versus control. How it is done:
Inhibitory Avoidance in Mouse: The inhibitory avoidance task involves the uses of a two-compartment step through apparatus (Ugo Basile, Collegeville, Pa.) that measures the animal's ability to remember a brief noxious stimulus (foot shock), and is considered a measure of trial learning, and memory consolidation. Briefly, 30 minutes after dosing, mice were placed in a lighted compartment of the apparatus where the latency to enter into the preferred dark compartment is recorded. Entry into a dark compartment results in the immediate delivery of a mild foot shock (0.2 mA, 1-second duration). Retention testing is conducted 24 hours later with the animal again placed in the lighted compartment where its latency to reenter the dark side of the apparatus is measured (no shock). Increasing retention latency is regarded as an index of memory consolidation (Bitner, R. S.; Bunnelle, W. H.; et al. Broad-spectrum efficacy across cognitive domains by α7 nicotinic acetylcholine receptor agonism correlates with activation of ERK1/2 and CREB phosphorylation pathways. J. Neurosci. 2007, 27 (39), 10578-10587.). […] (*p<0.05; **p<0.01, ***p<0.001 versus control)

The mark [4] stands for this setting: Homo sapiens, SK-N-SH, percent maximal JC-1 ratio normalized to peak value for 10 μM dimebolin.

Each structure is given as a SMILES string. “Also recorded” adds a separate entry of the source. Where only a bound is given, the exact number is not on record here.

For the molecule `Cc1ccc(/C=C/c2cccc3c4c([nH]c23)C2CCN(CC2)C4)cn1` [Example 1, 7-[(E)-2-(6-methylpyridin-3-yl)vinyl]-3,4,5,6-tetrahydro-1H-2,5-ethanoazepino[4,3-b]indole], in assay [1], the “% Attenuation Effect of 5 μM Aβ 1-42” value stood at 34% and the Emax at 3 µM was 106%. Also, the Emax in assay [2] (setting [4]) is 139%. Further, in assay [2] (Homo sapiens, SK-N-SH), the EC50 (in general, the concentration at which the effect is half-maximal) stood at 6.02 µM. For the same molecule, the “latency to reenter the dark side (punishment side)” value in assay [3] is recorded as “significantly increased; also recorded: concentration-dependent improvement”.

Regarding `Cc1ccc(C#Cc2cccc3c4c([nH]c23)C2CCN(CC2)C4)cn1` [Example 3, 7-[(6-methylpyridin-3-yl)ethynyl]-3,4,5,6-tetrahydro-1H-2,5-ethanoazepino[4,3-b]indole], in assay [1], the “% Attenuation Effect of 5 μM Aβ 1-42” value amounted to 43% and the Emax at 3 µM amounted to 115%. In addition, the Emax in assay [2] (setting [4]) amounted to 188%. For the same molecule, the EC50 in assay [2] (Homo sapiens, SK-N-SH) turned out to be 4.36 µM. In addition, the “latency to reenter the dark side (punishment side)” value in assay [3] was “significantly increased; also recorded: concentration-dependent improvement”.

Regarding `c1cnc2ccc(-c3cccc4c5c([nH]c34)C3CCN(CC3)C5)cc2c1` [Example 27, 7-quinolin-6-yl-3,4,5,6-tetrahydro-1H-2,5-ethanoazepino[4,3-b]indole], in assay [1], the “% Attenuation Effect of 5 μM Aβ 1-42” value was determined as 38% and the Emax at 0.3 µM is 109%. For the same molecule, in assay [2] (setting [4]), the Emax was 133%. The EC50 in assay [2] (Homo sapiens, SK-N-SH) amounted to 6.39 µM.

As to `Cc1ccc(/C=C/c2ccc3[nH]c4c(c3c2)CN2CCC4CC2)cn1` [Example 8, 9-[(E)-2-(6-methylpyridin-3-yl)vinyl]-3,4,5,6-tetrahydro-1H-2,5-ethanoazepino[4,3-b]indole], in assay [1], the “% Attenuation Effect of 5 μM Aβ 1-42” value is 49% and the Emax at 0.3 µM is 121%. Besides, in assay [2] (setting [4]), the Emax worked out at 162%. Besides, in assay [2] (Homo sapiens, SK-N-SH), the EC50 amounted to 4.05 µM.

On to `Cc1ccc(/C=C/c2cccc3c4c([nH]c23)C2CC[N+]([O-])(CC2)C4)cn1` [Example 28, 7-[(E)-2-(6-methylpyridin-3-yl)yinyl]-1,2,3,4,5,6-hexahydro-2,5-ethanoazepino[4,3-b]indole 2-oxide], for which the JC-1 max % in assay [2] (percent maximal JC-1 ratio normalized to peak value for 10 μM dimebolin) is 50%. Moreover, in assay [2], the EC50 was above 30 µM.

For `Fc1ccc(/C=C/c2cccc3c4c([nH]c23)C2CCN(CC2)C4)c(F)c1` [Example 14, 7-[(E)-2-(2,4-difluorophenyl)vinyl]-3,4,5,6-tetrahydro-1H-2,5-ethanoazepino[4,3-b]indole], in assay [2] (setting [4]), the Emax stood at 39%. Further, the concentration for a half-maximal effect (EC50) in assay [2] (Homo sapiens, SK-N-SH) is above 30 µM.

In the case of `C(=C\c1cccc2c3c([nH]c12)C1CCN(CC1)C3)/c1ccccc1` [Example 19, 7-[(E)-2-phenylvinyl]-3,4,5,6-tetrahydro-1H-2,5-ethanoazepino[4,3-b]indole], the Emax in assay [2] (setting [4]) was found to be 64%. Further, the EC50 in assay [2] (Homo sapiens, SK-N-SH) turned out to be 3.52 µM.

Regarding `C(=C/c1cccc2c3c([nH]c12)C1CCN(CC1)C3)/c1cncnc1` (single isomer, unassigned) [Example 30, 7-[(Z)-2-(pyrimidin-5-yl)vinyl]-3,4,5,6-tetrahydro-1H-2,5-ethanoazepino[4,3-b]indole], the Emax in assay [2] (setting [4]) worked out at 29%. In addition, the EC50 in assay [2] (Homo sapiens, SK-N-SH) is above 30 µM.

Consider `c1ccc2ncc(-c3cccc4c5c([nH]c34)C3CCN(CC3)C5)cc2c1` [Example 41, 7-(quinolin-3-yl)-3,4,5,6-tetrahydro-1H-2,5-ethanoazepino[4,3-b]indole], for which the Emax in assay [2] (setting [4]) came out at 171%. In addition, the EC50 in assay [2] (Homo sapiens, SK-N-SH) amounted to 3.68 µM.

Turning to `C(=C\c1cccc2c3c([nH]c12)C1CCN(CC1)C3)/c1ccsc1` [Example 6, 7-[(E)-2-thien-3-ylvinyl]-3,4,5,6-tetrahydro-1H-2,5-ethanoazepino[4,3-b]indole], the Emax in assay [2] (setting [4]) is 67%. Moreover, the EC50 in assay [2] (Homo sapiens, SK-N-SH) turned out to be 6.62 µM.

As to `Cc1ccc(C#Cc2cccc3[nH]c4c(c23)CN2CCC4CC2)cn1` [Example 23, 10-[(6-methylpyridin-3-yl)ethynyl]-3,4,5,6-tetrahydro-1H-2,5-ethanoazepino[4,3-b]indole], the Emax in assay [2] (setting [4]) was 140%. Further, the EC50 in assay [2] (Homo sapiens, SK-N-SH) is 7.27 µM.

With `C(#Cc1cccc2c3c([nH]c12)C1CCN(CC1)C3)c1ccncc1` [Example 21, 7-(pyridin-4-ylethynyl)-3,4,5,6-tetrahydro-1H-2,5-ethanoazepino[4,3-b]indole], the Emax in assay [2] (setting [4]) was 104%. Further, the EC50 in assay [2] (Homo sapiens, SK-N-SH) came to 3.69 µM.

With `Fc1cccc(/C=C/c2cccc3c4c([nH]c23)C2CCN(CC2)C4)c1` [Example 15, 7-[(E)-2-(3-fluorophenyl)vinyl]-3,4,5,6-tetrahydro-1H-2,5-ethanoazepino[4,3-b]indole], the Emax in assay [2] (setting [4]) was determined as 44%. The half-maximal effective concentration (EC50) in assay [2] (Homo sapiens, SK-N-SH) is above 30 µM.

For `FC(F)(F)Oc1ccc(C#Cc2cccc3c4c([nH]c23)C2CCN(CC2)C4)cc1` [Example 20, 7-{[4-(trifluoromethoxy)phenyl]ethynyl}-3,4,5,6-tetrahydro-1H-2,5-ethanoazepino[4,3-b]indole], in assay [2] (setting [4]), the Emax was found to be 47%. Besides, in assay [2] (Homo sapiens, SK-N-SH), the EC50 was above 30 µM.

With `c1cc(-c2cncnc2)c2[nH]c3c(c2c1)CN1CCC3CC1` [Example 38, 7-(pyrimidin-5-yl)-3,4,5,6-tetrahydro-1H-2,5-ethanoazepino[4,3-b]indole], the Emax in assay [2] (setting [4]) was 76%. Besides, the EC50 in assay [2] (Homo sapiens, SK-N-SH) was 10.5 µM.
